In PubChem BioAssay (NCI):
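The concentration for 50% growth inhibition is given as GI50. At the TGI there is no net growth.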

Legend:
Assay in all cases: inhibition of tumour cell growth, NCI panel, 384-well format
MOLT-4 leukemia = test system: MOLT-4 leukemia
OVCAR-3 ovarian = test system: OVCAR-3 ovarian
NCI/ADR-RES ovarian = test system: NCI/ADR-RES ovarian
RXF 393 renal = test system: RXF 393 renal
NCI-H23 lung = test system: NCI-H23 lung
NCI-H460 NSCLC = test system: NCI-H460 NSCLC
HCT-15 colon = test system: HCT-15 colon
BT-549 breast = test system: BT-549 breast
NCI-H522 lung = test system: NCI-H522 lung
RPMI-8226 leukemia = test system: RPMI-8226 leukemia
KM12 colon = test system: KM12 colon
MCF7 breast = test system: MCF7 breast
SK-MEL-28 melanoma = test system: SK-MEL-28 melanoma
SF-539 CNS = test system: SF-539 CNS
UACC-62 melanoma = test system: UACC-62 melanoma
SF-295 CNS = test system: SF-295 CNS
A549 NSCLC = test system: A549 NSCLC
SR leukemia = test system: SR leukemia
K-562 leukemia = test system: K-562 leukemia
OVCAR-8 ovarian = test system: OVCAR-8 ovarian
U251 glioblastoma = test system: U251 glioblastoma
DU-145 prostate = test system: DU-145 prostate
SW-620 colon = test system: SW-620 colon
NCI-H322M lung = test system: NCI-H322M lung
SNB-19 CNS = test system: SNB-19 CNS
HL-60(TB) leukemia = test system: HL-60(TB) leukemia
SK-MEL-2 melanoma = test system: SK-MEL-2 melanoma
MDA-MB-231 breast = test system: MDA-MB-231 breast
SN12C renal = test system: SN12C renal
M14 melanoma = test system: M14 melanoma
MDA-MB-435 melanoma = test system: MDA-MB-435 melanoma
SNB-75 CNS = test system: SNB-75 CNS
HOP-62 NSCLC = test system: HOP-62 NSCLC
SF-268 CNS = test system: SF-268 CNS
LOX IMVI melanoma = test system: LOX IMVI melanoma
OVCAR-5 ovarian = test system: OVCAR-5 ovarian
TK-10 renal = test system: TK-10 renal
SK-MEL-5 melanoma = test system: SK-MEL-5 melanoma
MALME-3M melanoma = test system: MALME-3M melanoma
UO-31 renal = test system: UO-31 renal
HS 578T breast = test system: HS 578T breast
IGROV1 ovarian = test system: IGROV1 ovarian
HT29 colon = test system: HT29 colon
HCT-116 colon = test system: HCT-116 colon
786-0 renal = test system: 786-0 renal
UACC-257 melanoma = test system: UACC-257 melanoma
HCC-2998 colon = test system: HCC-2998 colon

`C[C@@H]1CN(CC(=O)N2CC(C)(C)c3nc(CO)c(Cc4ccc(F)cc4)cc32)[C@@H](CN2CCOC[C@H]2C)CN1` gave a GI50 (MOLT-4 leukemia) of 18.5 µM, a TGI (MOLT-4 leukemia) of 35.6 µM and a GI50 (OVCAR-3 ovarian) of 42.5 µM. The TGI (OVCAR-3 ovarian) was greater than 83.1 µM, the GI50 (NCI/ADR-RES ovarian) was greater than 70.9 µM and the TGI (NCI/ADR-RES ovarian) was greater than 100 µM. The GI50 (RXF 393 renal) was 0.175 µM, the TGI (RXF 393 renal) was 6.79 µM and the GI50 (NCI-H23 lung) was 24.8 µM. For the same compound, the TGI (NCI-H23 lung) was 99.2 µM, the GI50 (NCI-H460 NSCLC) was 26 µM and the TGI (NCI-H460 NSCLC) was 56.1 µM. For the same compound, the GI50 (HCT-15 colon) was 27.7 µM, the TGI (HCT-15 colon) was greater than 83.3 µM and the GI50 (BT-549 breast) was 0.695 µM. The TGI (BT-549 breast) was 27.8 µM, the GI50 (NCI-H522 lung) was 14.2 µM and the TGI (NCI-H522 lung) was 32.4 µM. The GI50 (RPMI-8226 leukemia) was 23.1 µM, the TGI (RPMI-8226 leukemia) was 38 µM and the GI50 (KM12 colon) was 28.2 µM. The TGI (KM12 colon) was 63.8 µM, the GI50 (MCF7 breast) was 35.2 µM and the TGI (MCF7 breast) was 79.5 µM. For the same compound, the GI50 (SK-MEL-28 melanoma) was 14.1 µM, the TGI (SK-MEL-28 melanoma) was 33.3 µM and the GI50 (SF-539 CNS) was 32.4 µM. For the same compound, the TGI (SF-539 CNS) was 67.2 µM, the GI50 (UACC-62 melanoma) was 27.9 µM and the TGI (UACC-62 melanoma) was greater than 69 µM. The GI50 (SF-295 CNS) was 42 µM, the TGI (SF-295 CNS) was greater than 81.4 µM and the GI50 (A549 NSCLC) was greater than 69.2 µM. The TGI (A549 NSCLC) was greater than 100 µM, the GI50 (SR leukemia) was 15.1 µM and the TGI (SR leukemia) was 28.5 µM. For the same compound, the GI50 (K-562 leukemia) was 16.8 µM, the TGI (K-562 leukemia) was 30.9 µM and the GI50 (OVCAR-8 ovarian) was 17.7 µM. It also gave a TGI (OVCAR-8 ovarian) of 47.8 µM, a GI50 (U251 glioblastoma) of 28.1 µM and a TGI (U251 glioblastoma) of 62.4 µM. It also gave a GI50 (DU-145 prostate) greater than 73.5 µM, a TGI (DU-145 prostate) greater than 100 µM and a GI50 (SW-620 colon) of 53.5 µM. It also gave a TGI (SW-620 colon) of 97.4 µM, a GI50 (NCI-H322M lung) of 33.5 µM and a TGI (NCI-H322M lung) greater than 73.1 µM. The GI50 (SNB-19 CNS) was 99.7 µM, the TGI (SNB-19 CNS) was greater than 100 µM and the GI50 (HL-60(TB) leukemia) was 4.54 µM. For the same compound, the TGI (HL-60(TB) leukemia) was 18.9 µM, the TGI (SK-MEL-2 melanoma) was 14.6 µM and the GI50 (MDA-MB-231 breast) was 0.103 µM. For the same compound, the TGI (MDA-MB-231 breast) was 2.39 µM, the GI50 (SN12C renal) was greater than 79 µM and the TGI (SN12C renal) was greater than 100 µM. For the same compound, the GI50 (M14 melanoma) was 17.2 µM, the TGI (M14 melanoma) was 31.1 µM and the GI50 (MDA-MB-435 melanoma) was 47 µM. It also gave a TGI (MDA-MB-435 melanoma) greater than 100 µM, a GI50 (SNB-75 CNS) of 16.3 µM and a TGI (SNB-75 CNS) of 41.6 µM. The GI50 (HOP-62 NSCLC) was 17.9 µM, the TGI (HOP-62 NSCLC) was greater than 61.2 µM and the GI50 (SF-268 CNS) was 38.6 µM. The TGI (SF-268 CNS) was greater than 74.7 µM, the GI50 (LOX IMVI melanoma) was 17.6 µM and the TGI (LOX IMVI melanoma) was 31.5 µM. It also gave a GI50 (OVCAR-5 ovarian) of 38.7 µM, a TGI (OVCAR-5 ovarian) of 99.8 µM and a GI50 (TK-10 renal) of 27.9 µM. It also gave a TGI (TK-10 renal) of 52.9 µM, a GI50 (SK-MEL-5 melanoma) of 1.41 µM and a TGI (SK-MEL-5 melanoma) of 20.2 µM. The GI50 (MALME-3M melanoma) was 0.0411 µM, the TGI (MALME-3M melanoma) was 2.61 µM and the GI50 (UO-31 renal) was 39.6 µM. It also gave a TGI (UO-31 renal) greater than 100 µM, a GI50 (HS 578T breast) of 7.75 µM and a TGI (HS 578T breast) greater than 67.2 µM. The GI50 (IGROV1 ovarian) was 61.4 µM, the TGI (IGROV1 ovarian) was greater than 100 µM and the GI50 (HT29 colon) was 19.3 µM. The TGI (HT29 colon) was 36.7 µM, the GI50 (HCT-116 colon) was 35.6 µM and the TGI (HCT-116 colon) was greater than 91.2 µM. For the same compound, the GI50 ([…]-0 renal) was 20.4 µM, the TGI (786-0 renal) was 42.2 µM and the GI50 (UACC-257 melanoma) was 16.1 µM. It also gave a TGI (UACC-257 melanoma) of 29.7 µM, a GI50 (HCC-2998 colon) of 15.8 µM and a TGI (HCC-2998 colon) of 29.8 µM.
